Non-standard residues stand in square brackets, D forms with d. Residues, ends and D or L forms follow the SMILES beside them. *: point of attachment. Phe(2-Me) = Cc1ccccc1C[CH](N)C(=O)O; Tle = CC(C)(C)[CH](N)C(=O)O; X3 = CC(C)(C)OC(=O)CCC(=O)*; Boc = CC(C)(C)OC(=O)*; Bn = c1ccc(C*)cc1; OtBu = CC(C)(C)O*
| melting point [°C] | SMILES |
| --- | --- |
| 114 to 123 | O=C(NCCCCCCCCCCCCNC(=O)C(O)C(O)C(O)C(O)COC1OC(CO)C(O)C(O)C1O)C(O)C(O)C(O)C(O)COC1OC(CO)C(O)C(O)C1O (configuration not stated) |
| 83 to 86 | CCCCCCCCCCCCCCCCCCOc1cc(OCCCCc2ccc3cc(OCc4ccccc4)c(OCc4ccccc4)cc3c2)cc(N(CC(=O)O)CC(=O)O)c1 |
| 191 to 193 | CC(C)[C@@H](NC(=O)[C@@H](CSC(c1ccccc1)(c1ccccc1)c1ccccc1)NC(=O)[C@@H](C)NC(=O)C[C@H](O)/C=C/CCSC(c1ccccc1)(c1ccccc1)c1ccccc1)C(=O)NCC(=O)O |
| 178 to 180 | CC(=O)OC1C(=O)C2(C)C(O)CC3OCC3(OC(C)=O)C2C(OC(=O)c2ccccc2)C2(O)CC(OC(=O)C(OC(=O)CCC(=O)O)C(NC(=O)c3ccccc3)c3ccccc3)C(C)=C1C2(C)C (configuration not stated) |
| 269 | CC(C)(C)c1cc(C(C)(C)C)c2op(Op3oc4c(C(C)(C)C)cc(C(C)(C)C)cc4c4cc(C(C)(C)C)cc(C(C)(C)C)c4o3)oc3c(C(C)(C)C)cc(C(C)(C)C)cc3c2c1 |
| 176 | O=C(Nc1ccc(N2CCNCC2)cc1)c1ccccc1-c1ccccc1 |
| 187 to 189 | COC(=O)c1ccc([C@H](C)NC(=O)CN2CCN(CC(=O)N[C@@H](C)c3ccccc3)CCN(Cc3ccn(-c4ccc5c(=O)c6cc(C(C)(C)C)ccc6oc5n4)n3)CCN(CC(=O)N[C@@H](C)c3ccccc3)CC2)cc1 |
| 120 to 125 | CC(CCC(=O)O)C1CCC2C3C(O)CC4CC(NC(=O)CNC(=O)CN(CCN(CC(=O)O)CC(=O)O)CCN(CC(=O)O)CC(=O)O)CCC4(C)C3CC(O)C12C (configuration not stated) |
| 98 to 100 | CC(C)C(NC(=O)C(Cc1ccc(OCc2ccccc2)cc1)NC(=O)C(COCc1ccccc1)NC(=O)C(Cc1c[nH]c2ccccc12)NC(=O)OC(C)(C)C)C(=O)O (configuration not stated) (Boc-WS(Bn)Y(Bn)V-OH; configuration not given here) |
| 175 to 180 | CCC(CO)Sc1nc(Nc2ccc(S(C)(=N)=O)cc2)ncc1Br (mixture of isomers) |
| 129 to 130 | CC1(C)CC(OC(=O)C(CCCCCCC(Cc2ccccc2)(C(=O)OC2CC(C)(C)NC(C)(C)C2)C(=O)OC2CC(C)(C)NC(C)(C)C2)(Cc2ccccc2)C(=O)OC2CC(C)(C)NC(C)(C)C2)CC(C)(C)N1 |
| 83 to 88 | CCNC(=O)[C@@H](C)NC(=O)[C@H](Cc1c[nH]cn1)NC(=O)[C@H](COCc1ccccc1)NC(=O)[C@H](Cc1ccc(OCc2ccccc2)cc1)NC(=O)[C@H](Cc1c[nH]cn1)NCc1ccccc1 |
| 178 to 182 | COC(=O)C(C)NC(=O)C(COCc1ccccc1)NC(=O)C(Cc1ccc(OCc2ccccc2)cc1)NC(=O)C(Cc1c[nH]c2ccccc12)NC(=O)OC(C)(C)C (configuration not stated) (Boc-WY(Bn)S(Bn)A-OMe; configuration not given here) |
| 275 | O=C(c1ccc(I)cc1)c1cc2c3c(c1)C(c1cccc(Cl)c1)CC(=O)N3CC2 (configuration not stated) |
| 130 to 133 | CCC(C)C1NC(=O)C(NC(=O)C(CC(C)C)N(C)C(C)=O)C(C)OC(=O)C(Cc2ccc(OC)cc2)N(C)C(=O)C2CCCN2C(=O)C(CC(C)C)NC(=O)C(C)C(=O)C(C(C)C)OC(=O)CC1OC(C)=O (configuration not stated) |
| 72 to 77 | CCC(C)(C)c1ccc(OCC(=O)Nc2cccc(C(=O)Nc3[nH]n(-c4c(Cl)cc(Cl)cc4Cl)c(=O)c3OC(=O)Nc3ccccc3)c2)c(C(C)(C)CC)c1 |
| 159 to 161 | CCCCCCCCCCCCN1C(=O)NC2(CC(C)(C)N(CC(O)COc3ccc(C(C)(C)c4ccc(OCC(O)CN5C(C)(C)CC6(CC5(C)C)NC(=O)N(CCCCCCCCCCCC)C6=O)cc4)cc3)C(C)(C)C2)C1=O (configuration not stated) |
| 62 to 63 | CS(=N)(=O)c1ccc([N+](=O)[O-])c(C(=O)C2C=CC(C(F)(F)F)=C(Oc3ccccc3)C2(Cl)[N+](=O)[O-])c1 (configuration not stated) |
| 149 to 151 | NC(=NO)c1ccc(Cl)cc1Cl |
| 159 to 161 | COc1ccc(C(=CC2(C=C(c3ccc(OC)cc3)c3ccc(N4CCCC4)cc3)OC(=O)c3c(Cl)c(Cl)c(Cl)c(Cl)c32)c2ccc(N3CCCC3)cc2)cc1 (configuration not stated) |
| 93 to 94 | O=C(OCCCOC(=O)C(OCc1ccc(-c2ccc(Cl)cc2)cc1)(C(F)(F)F)C(F)(F)F)C(OCc1ccc(-c2ccc(Cl)cc2)cc1)(C(F)(F)F)C(F)(F)F |
| 172 to 176 | CC(C)(O)CON1C(C)(C)CC(CCCCNc2nc(NCCCCC3CC(C)(C)N(OCC(C)(C)O)C(C)(C)C3)nc(NCCCCC3CC(C)(C)N(OCC(C)(C)O)C(C)(C)C3)n2)CC1(C)C |
| 228 to 229 | CCCCCCCCCCC1(CCCCCCCCCC)c2cc(-c3ccc4c(c3)C(CC)(CC)c3cc(-c5nc6ccccc6s5)ccc3-4)ccc2-c2ccc(-c3ccc4c(c3)C(CC)(CC)c3cc(N(c5ccccc5)c5ccccc5)ccc3-4)cc21 |
| > 250 | CCCCc1ccc(C(=O)Nc2ccc(OC(=O)c3ccc(CCCC)cc3)c3c2C(=O)c2c(NC(=O)c4ccc(CCCC)cc4)cc(C)c(OC(=O)c4ccc(CCCC)cc4)c2C3=O)cc1 |

| melting point [°C] | SMILES |
| --- | --- |
| 129 to 132 | CC1(C)CC(O)(C#N)CC(C)(C)N1 |
| 56 to 57 | O=C(Oc1c(I)cc(I)c(Br)c1I)C(F)(F)C(F)(Br)C(F)(F)Br (configuration not stated) |
| 131 to 132 | CCCCCCCCCCCCCC=CC(OC(=O)c1ccccc1)C(COC1OC(CO)C(O)C(OCCCCC(C(=O)OC(C)(C)C)C(=O)OC(C)(C)C)C1O)NC(=O)CCCCCCCCCCCCCCC (configuration not stated) |
| 66 to 76 | CCCCCCCCCCCCc1cc2c(cc1CCCCCCCCCCCC)C(=O)c1c(c(O)c3cc(CCCCCCCCCCCC)c(CCCCCCCCCCCC)cc3c1O)C2=O |
| 110 to 130 | CC(=O)Nc1c(I)c(C(=O)N(C)CC(O)C(O)C(O)C(O)CO)c(I)c(N(C)C(C)=O)c1I (configuration not stated) |
| 137 to 139 | O=C(O)CCC(Cc1cccc(Cl)c1)(C(=O)C=Cc1ccc(Cl)cc1)c1ccccc1 (configuration not stated) |
| 29 to 30 | CCCCCCCCCCSc1c(SCCCCCCCCCC)c(SCCCCCCCCCC)c(SCCCCCCCCCC)c(SCCCCCCCCCC)c1SCCCCCCCCCC |
| 235 to 236 | Cc1ccccc1CC(NC(=O)C(CCC(=O)OC(C)(C)C)NC(=O)C(CC(=O)OC(C)(C)C)NC(=O)CCC(=O)OC(C)(C)C)C(=O)NC(C(=O)NC(CC(C)C)C(=O)O)C(C)(C)C (X3-D(OtBu)E(OtBu)[Phe(2-Me)][Tle]L-OH; configuration not given here) |
| 135 to 140 | O=C(OCC(OC(=O)C1CCCCC1)C(OC(=O)C1CCCCC1)C(OC(=O)C1CCCCC1)C(COC(=O)C1CCCCC1)OC(=O)C1CCCCC1)C1CCCCC1 (configuration not stated) |
| 100 | CC(=O)ON=C(N)c1ccc(CN(CCCCNC(=O)OC(C)(C)C)C(=O)CNC(=O)CN(CCc2ccccc2)S(=O)(=O)c2ccc(Cl)c(C)c2Cl)cc1 |
| 85 | CCN(c1nc(OCCOC(=O)CCC(=O)OCCOc2nc(N(CC)C3CC(C)(C)NC(C)(C)C3)nc(N(CC)C3CC(C)(C)NC(C)(C)C3)n2)nc(N(CC)C2CC(C)(C)NC(C)(C)C2)n1)C1CC(C)(C)NC(C)(C)C1 |
| 218 to 221 | COc1ccc([N+](=O)[O-])cc1C(/C=C/c1ccc(I)cc1)S(=O)(=O)C(/C=C/c1ccc(I)cc1)c1cc([N+](=O)[O-])ccc1OC (configuration not stated) |
| 160 to 162 | CC(CC(CC(Sc1cc(C(C)(C)C)c(O)c(C(C)(C)C)c1)Sc1cc(C(C)(C)C)c(O)c(C(C)(C)C)c1)Sc1cc(C(C)(C)C)c(O)c(C(C)(C)C)c1)Sc1cc(C(C)(C)C)c(O)c(C(C)(C)C)c1 (configuration not stated) |
| 140 to 145 | CC(C)Cn1c(C(O)c2ccc(Cl)cc2)nc2c(N)nc3ccccc3c21 (configuration not stated) |
| 102 to 105 | CC[C@H](C)CNC(=O)[C@@H](C[C@H](O)[C@H](CC1CCCCC1)NC(=O)[C@H](Cc1cscn1)NC(=O)[C@@H](CC(=O)N1CCOCC1)Cc1cccc2ccccc12)C(C)(C)O |
| 60.2 | C=C(C)C(=O)OCCCCCCCCCCCOc1ccc(-c2nc(-c3ccc(OCCCCCCCCCCCOC(=O)C(=C)C)cc3O)nc(-c3ccc(OCCCCCCCCCCCOC(=O)C(=C)C)cc3O)n2)c(O)c1 |
| 125 to 145 | COC1C(=O)C2(C)C(OC)CC3OCC3(OC(C)=O)C2C(OC(=O)c2ccccc2)C2(O)CC(OC(=O)C(O)C(NC(=O)OC(C)(C)C)c3ccccc3)C(C)=C1C2(C)C (configuration not stated) |
| 176 to 178 | CC(C)[C@H](NC(=O)N(C)Cc1nccs1)C(=O)N[C@@H](Cc1ccccc1)[C@@H](O)[C@H](O)[C@H](Cc1ccccc1)NC(=O)[C@@H](NC(=O)N(C)Cc1nccs1)C(C)C |
| 6 | CCSC(=O)N(CC(C)C)CC(C)C |
| 118 | CN(CC(O)C(CC1CCCCC1)NC(=O)C(Cc1c[nH]cn1)NC(=O)C(CC(=O)C(C)(C)C)Cc1ccccc1)C(Cc1c[nH]cn1)NC(=O)C(CC(=O)C(C)(C)C)Cc1ccccc1 (configuration not stated) |
| 111 to 113 | CCCCCCCCCCCCNC(=O)c1cccc(Sc2c(Nc3cc(C(=O)NCCCCCCCCCCCC)ccc3Cl)nn(-c3c(Cl)cc(Cl)cc3Cl)c2OC(=O)CCC)c1 |
| 156 to 157 | COc1ccc(C(=O)c2ccc(OCc3nc(-c4ccccc4)oc3C)cc2)c(O)c1 |
| 257 to 262 | CCC1(CC)c2cc(-c3ccc(N(c4ccccc4)c4ccc(-c5ccc6c(c5)C(CC)(CC)c5cc(-c7nc8ccccc8s7)ccc5-6)cc4)cc3)ccc2-c2ccc(-c3nc4ccccc4s3)cc21 |

| SMILES | melting point [°C] |
| --- | --- |
| [C-]#[N+]Cc1nc(-c2ccccc2)c(-c2ccccc2)o1 | 95 to 96 |
| O=C(Cl)C(F)(F)F | -146 |
| C=C(C)C(=O)OCCCCOC(=O)C(=C)C | -117 |
| NC(=NC(=O)OCc1ccc([N+](=O)[O-])cc1)N(CCSSCCN(C(=O)OCc1ccc([N+](=O)[O-])cc1)C(N)=NC(=O)OCc1ccc([N+](=O)[O-])cc1)C(=O)OCc1ccc([N+](=O)[O-])cc1 | 165 |
| Cc1nc(C(=O)Cl)c(C)o1 | 37.7 |
